Source: patent publication US20210144999A1, “COMPOSITIONS COMPRISING HYDROXYCINNAMIC ACID AND RELATED CONJUGATES, ANALOGUES AND DERIVATIVES, AND METHODS OF USE THEREOF” (YEDA RESEARCH AND DEVELOPMENT CO. LTD., priority 2017, published 2021)
“Also recorded” adds a separate entry of the source.

Tests used:
R. solani = test: Bioprotection of Arabidopsis thaliana by B. subtilis against rhyzoctonia solani; assay type: in vivo; conditions: 5 μM purified RID with 1000 B. subtilis cells, 100 or 10,000 pathogen cells
Method: (§1) FIG. 19: Purified RID improved the bioprotection versus pseudomonas syringae and rhyzoctonia solani achieved by Bacillus. We used Bacillus strain B. subtilis 3610 (B.S). The bacterial strain was maintained on LB plates. 1000 cells either applied or non-applied with 5 μM of purified RID were added to Arabidopsis thaliana plants grown on MS solid media. Plants were incubated at 26±2° C. for 5 days. P. syringae (P.S) or R. solani (R.S) were grown in TSB at 37° C. to OD600=0.2 to 0.3 (3*10^8 cells per ml) and diluted to 100 cells, or 10,000 cells retrospectively (w/v) into the plant media. Plants were further incubated at 28±2° C. for 5 days and the growth of the pathogen was measured and compared with the control. Three replications were maintained for each assay. SD represents the average of three independent experiments.
(§2) Bacillus strain B. subtilis 3610 (B.S) was maintained on LB plates. 1000 cells with or without 5 μM of purified RID were added to Arabidopsis thaliana plants grown on MS solid media. Plants were incubated at 26±2° C. for 5 days. P. syringae (P.S) or R. solani (R.S) were grown in TSB at 37° C. to OD600=0.2 to 0.3 (3*10^8 cells per ml) and diluted to 100 cells, or 10,000 cells retrospectively (w/v) into the plant media. Plants were further incubated at 28±2° C. for 5 days and the growth of the pathogen was measured and compared with the control. […]

rhyzoctonia solani = test: Bioprotection of tomato plants by B. subtilis against rhyzoctonia solani; assay type: in vivo; conditions: RID with B. subtilis
Method: ISR assay. Arabidopsis thaliana or Microtome tomato seedlings were grown on NITCH-agar for 10 days. Then each seedling was transferred to separate solid MSgg plate. In order to test the effects of either treated or untreated B. subtilis on the Induced systemic resistance (ISR), bacterial cells were inoculated aside to the root (as mentioned above) and incubated at 23° C. for five days. Alternatively and as indicated in the corresponding figure legend, we inoculated the bacterial cells directly on the root. Then the first leaf was infected by puncturing by needle and inoculating with the necrosis-causing pathogens, Pseudomonas syringae DC3000 or rhyzoctonia solani (Kuhn). Five days after infection with P. syringae, plants were further analyzed.
Tomato infections (FIGS. 18A, 18B and 19).

[1] = test system: P. syringae strain DC3000 pv tomato; test: Bioprotection of tomato plants by B. subtilis against pseudomonas syringae; assay type: in vivo; conditions: 5 μM RID with 1000 B. subtilis cells; 100 or 10,000 pathogen cells
Method: FIGS. 18A-18B: Purified RID improved the bioprotection versus pseudomonas syringae achieved by Bacillus. Bacillus strain B. subtilis 3610 (B.S) was used. The bacterial strain was maintained on LB plates. 1000 cells either applied or non-applied with 5 μM of RID were added to tomato plants grown on agrophonic beads. Plants were incubated at 28±2° C. for 15 days. P. syringae strain DC3000 pv tomato (P.S) culture was grown in LB at 37° C. to OD600=0.2 to 0.3 (3*10^8 cells per ml) and diluted to 100 cells (FIG. 18A) 10,000 (FIG. 18B) cells retrospectively (w/v) into the plant media. Plants were further incubated at 28±2° C. for 10 days and the growth of the pathogen was measured and compared with the control. Three replications were maintained for each assay. SD represents the average of three independent experiments.
Bacillus strain B. subtilis 3610 (B.S) was maintained on LB plates. 1000 cells of B.S. with or without the addition of 5 μM of RID were added to tomato plants grown on agrophonic beads. Plants were incubated at 28±2° C. for 15 days.
P. syringae strain DC3000 pv tomato (P.S) was grown in LB at 37° C. to OD600=0.2 to 0.3 (3*10^8 cells per ml) and diluted to 10,000 cells retrospectively (w/v) into the plant media. Plants were further incubated at 28±2° C. for 10 days and the growth ofthe pathogen was measured and compared with the control. […]

[2] = test system: B. subtilis 3610 Δ yclQ mutant biofilms; test: Biofilm (pellicle) development of B. subtilis strain defective in iron uptake; assay type: cell-based; conditions: Δ yclQ mutant pellicles with or without purified RID
From the text: Biofilms grown in the presence and absence of RID in B. subtilis 3610 and its derivate (Δ yclQ) mutant in iron uptake pathways (Zawadzka et al., 2009). Untreated pellicles are shown in the top panel. Pellicles applied with purified RID are shown below.

P. syringae = test: Bioprotection of Arabidopsis thaliana by B. subtilis against pseudomonas syringae; assay type: in vivo; conditions: 5 μM purified RID with 1000 B. subtilis cells, 100 or 10,000 pathogen cells
Method: as §1, §2

B. subtilis biofilms = test: B. subtilis biofilm stability / maintenance in vitro; assay type: cell-based; conditions: in vitro and in vivo, specific environmental conditions such as iron starvation
Method: Shown are biofilms of treated and untreated B. subtilis biofilms.
Strains and Media All experiments were performed with B. subtilis NCBI3610 and its derivatives. Assays were carried out with the biofilm-inducing medium, MSgg: 5 mM potassium phosphate, 100 mM MOPS (pH 7), 2 mM MgCl2, 50 μM MnCl2, 1 μM ZnCl2, 2 μM thiamine, 0.5% glycerol, 0.5% glutamate, 50 μg/ml tryptophan, 50 μg/mlphenylalanine 50 μg/ml threonine, 700 μM CaCl2, and 50 μM (for growth assays) or 125 μM (for biofilm assays) FeCl3^1. A solid MSgg medium was obtained by adding Bacto agar (Difco) to a final concentration of 1.5%. When necessary, selective medium was prepared with LB-agar or LB broth, supplemented with: 100 μg/ml ampicillin (amp) (AG Scientific), or 10 μg/ml kanamycin (kan) (AG Scientific), or 10 μg/ml chloramphenicol (cam) (Amresco), or 10 μg/ml tetracycline (tet) (Amresco), or 100 μg/ml spectinomycin (spec) (Tivan Biotech), or 1 μg/mlerythromycin (erm) (Amresco)+25 μg/ml lincomycin (linc) (Sigma Aldrich).

With `NCCCCNC(=O)/C=C/c1ccc(O)c(O)c1` [RID, caffeoyl putrescine] as the molecule, how does the “B. subtilis-mediated protection of Arabidopsis (Brassicaceae) from rhyzoctonia solani” value (R. solani) read?
Its value is “improved significantly protection achieved by Bacillus subtilis”.

What about the “B. subtilis-mediated protection of Arabidopsis (Brassicaceae) from rhyzoctonia solani” value (R. solani; listed as purified RID) of the same molecule?
The value was “significantly improve the protection of Brassicaceae plants”.

And the “B. subtilis-mediated protection of tomato plants from rhyzoctonia solani” value (rhyzoctonia solani)?
Its value is “enhanced the protective effects of Bacillus subtilis on tomato plant mortality”.

And the “B. subtilis-mediated protection of tomato plants from pseudomonas syringae pv. Tomato” value [1]?
Its value is “enhanced the protective effects of Bacillus subtilis on tomato plant mortality; also recorded: improved significantly the duration of protection achieved by Bacillus subtilis and the resistance to high inoculum of infection”.

And the “biofilm development of iron-uptake defective B. subtilis” value [2]?
The value was “compensated for the biofilm defect; also recorded: can promote the development of biofilms”.

What about the “B. subtilis-mediated protection of Arabidopsis (Brassicaceae) from pseudomonas syringae” value (P. syringae) of the same molecule?
The value was “improved significantly protection achieved by Bacillus subtilis”.

And the “B. subtilis-mediated protection of Arabidopsis (Brassicaceae) from pseudomonas syringae” value (P. syringae; listed as purified RID)?
Its value is “significantly improve the protection of Brassicaceae plants”.

And the “disassembly of B. subtilis biofilms” value (B. subtilis biofilms)?
The value was “blocks the disassembly of B. subtilis biofilms in vitro and in vivo”.
